Reference: patent US20210338656A1, “IMMUNOSTIMULATORY AGENTS IN COMBINATION WITH ANGIOGENESIS INHIBITORS” (Alkermes Pharma Ireland Limited, priority 2020, published 2021)

Tests used:
[1] = tested on: gene expression in MC38 tumors; experiment: RNA-Seq gene expression in MC38 tumors, Day 10; assay type: in vivo, mouse
Method: On Day 10 spleens and tumors were collected and weighed from all animals in Groups 7 through 12 and weighed prior to processing. Tissues from four animals in each group were processed to single cell suspensions for flow cytometry analysis at CRL-NC (described below). Tissues from the remaining six animals in each group were preserved in RNAlater, stored at −80° C.
Tumors and spleens were dissected on the appropriate day of the study and were weighed and immediately placed in RNAlater Stabilizing Reagent to preserve the tissue and stored overnight at 4 deg C. The following day, the samples were removed from RNA later and snap frozen and placed at −80 deg C.
Unless otherwise indicated, everything was done on ice and the materials were prechilled on ice. The tissues were homogenized in TRIzol in Precellys tissue grinding tubes. After homogenization, the TRIzol solutions were transferred to 1.5 ml tubes and spun for 5 min at 12,000×g to eliminate the insoluble material. The TRIzol solutions were then transferred to Phasemaker tubes. Chloroform was added, the tubes were capped, and shaken vigorously for 15 seconds. The samples were then incubated at room temperature for 2-15 minutes and centrifuged at 12,000×g for 5 minutes. The upper, aqueous phase was then transferred to a new tube and an equal volume of 70% ethanol was added and it was vortexed. The liquid was then transferred to Qiagen RNeasy columns and centrifuged at 8000×g. DNAse was added to each tube to eliminate any residual DNA. The columns were then washed and eluted as directed by the kit. The RNA concentrations were determined using a Qubit.
Libraries were prepared for sequencing by using the Mouse Transcriptome Ion AmpliSeq Library Preparation on the Ion Chef System as directed by the manufacturer. Eight samples of purified RNA and 8 unique IonCode molecular barcodes were added to a 96 well plate and were prepared at a time. After the libraries were prepared, they were templated and loaded onto an Ion Torrent 540 chip using the Ion 540 Chef Kit from ThermoFisher. The 540 chips were then loaded into a Gene Studio S5 sequencer and sequenced.
Raw sequencing data was processed by Torrent Suite (v5.8.0) software that came with the Gene Studio sequencer (ThermoFisher). For each sample, this program summarized gene expression in a CHP file. The CHP files were then loaded into the Transcriptome Analysis Console (TAC) program (ThermoFisher).

[2] = tested on: MC38 murine colon carcinoma cells; experiment: Anti-tumor efficacy in subcutaneous MC38 syngeneic tumor model (tumor growth, survival); assay type: in vivo, mouse
Method: The characteristics of each animal study group, the administration of the test articles and timing, the collection of samples and the overall study design are as shown in Tables 1 and 2:
(68-72° F.) and 40-60% humidity.
Additional aliquots were stored at 4° C. for use within 72 hours of formulation. Just prior to administration, dosing solutions were remixed with gentle inversion.
Group mean tumor volumes were plotted versus time. When an animal exited the study because of tumor size or TR death, its final recorded tumor volume was included with the data used to calculate the mean volume. Mean tumor volumes were calculated for a group until 50% of the animals had exited the study. Kaplan-Meier plots show the percentage of animals in each group remaining in the study versus time.

[3] = T cell signaling gene, MC38 tumors Day 10 RNA-Seq, lucitanib 10 mg/kg po, SEQ ID NO. 2 3 mg/kg sc
[4] = Type I/II interferon pathway gene, MC38 tumors Day 10 RNA-Seq, lucitanib 10 mg/kg po, SEQ ID NO. 2 3 mg/kg sc
[5] = antigen presentation gene, MC38 tumors Day 10 RNA-Seq, lucitanib 10 mg/kg po, SEQ ID NO. 2 3 mg/kg sc

For `CNC(=O)c1cccc2cc(Oc3ccnc4cc(OCC5(N)CC5)c(OC)cc34)ccc12` [Lucitanib, 6-(7-((1-Aminocyclopropyl)-methoxy)-6-methoxyquinolin-4-yloxy)-N-methyl-1-naphthamide], the “Cd3e mean expression value relative to vehicle group” value [1, 3] was 2.49, the “Cd4 mean expression value relative to vehicle group” value [1, 3] was 2.67 and the “Cd8a mean expression value relative to vehicle group” value [1, 3] was 2.03. The “Cd8b1 mean expression value relative to vehicle group” value [1, 3] was 3.57, the “Cd28 mean expression value relative to vehicle group” value [1, 3] was 5.49 and the “Cd247 mean expression value relative to vehicle group” value [1, 3] was 1.44. For the same molecule, the “Cd3d mean expression value relative to vehicle group” value [1, 3] was 3.14, the “Ctla4 mean expression value relative to vehicle group” value [1, 3] was 4.10 and the “H2-Aa mean expression value relative to vehicle group” value [1, 3] was 1.59. For the same molecule, the “H2-Ab1 mean expression value relative to vehicle group” value [1, 3] was 1.12, the “H2-Eb1 mean expression value relative to vehicle group” value [1, 3] was 1.66 and the “Icos mean expression value relative to vehicle group” value [1, 3] was 6.03. The “Ifng mean expression value relative to vehicle group” value [1, 3] was 2.74, the “Il2 mean expression value relative to vehicle group” value [1, 3] was 0.60 and the “Lck mean expression value relative to vehicle group” value [1, 3] was 1.36. For the same molecule, the “Lcp2 mean expression value relative to vehicle group” value [1, 3] was 0.40, the “Nfatc2 mean expression value relative to vehicle group” value [1, 3] was 0.34 and the “Pdcd1 mean expression value relative to vehicle group” value [1, 3] was 0.75. For the same molecule, the “Ptpn22 mean expression value relative to vehicle group” value [1, 3] was 1.16, the “Ptprc mean expression value relative to vehicle group” value [1, 3] was 2.25 and the “Zap70 mean expression value relative to vehicle group” value [1, 3] was 1.46. The “B2m mean expression value relative to vehicle group” value [1, 4] was 0.32, the “Bst2 mean expression value relative to vehicle group” value [1, 4] was 0.75 and the “Cd44 mean expression value relative to vehicle group” value [1, 4] was −0.26. The “Ciita mean expression value relative to vehicle group” value [1, 4] was 0.62, the “Fcgr1 mean expression value relative to vehicle group” value [1, 4] was 1.56 and the “Gm10499 mean expression value relative to vehicle group” value [1, 4] was 0.04. The “H2-Aa mean expression value relative to vehicle group” value [1, 4] was 1.59, the “H2-Ab1 mean expression value relative to vehicle group” value [1, 4] was 1.12 and the “H2-Eb1 mean expression value relative to vehicle group” value [1, 4] was 1.66. The “H2-K1 mean expression value relative to vehicle group” value [1, 4] was 0.26, the “H2-Q10 mean expression value relative to vehicle group” value [1, 4] was 0.32 and the “Icam1 mean expression value relative to vehicle group” value [1, 4] was 0.43. For the same molecule, the “Ifi35 mean expression value relative to vehicle group” value [1, 4] was 0.62, the “Ifit2 mean expression value relative to vehicle group” value [1, 4] was 0.25 and the “Ifitm1 mean expression value relative to vehicle group” value [1, 4] was 0.38. The “Ifna2 mean expression value relative to vehicle group” value [1, 4] was 0, the “Ifnar1 mean expression value relative to vehicle group” value [1, 4] was −0.01 and the “Ifnar2 mean expression value relative to vehicle group” value [1, 4] was 0.39. The “Ifnb1 mean expression value relative to vehicle group” value [1, 4] was 0.12, the “Ifng mean expression value relative to vehicle group” value [1, 4] was 2.74 and the “Ifngr1 mean expression value relative to vehicle group” value [1, 4] was 0.84. For the same molecule, the “Irf1 mean expression value relative to vehicle group” value [1, 4] was 0.3, the “Irf4 mean expression value relative to vehicle group” value [1, 4] was 1.23 and the “Irf5 mean expression value relative to vehicle group” value [1, 4] was 0.02. The “Irf8 mean expression value relative to vehicle group” value [1, 4] was 0.38, the “Mx1 mean expression value relative to vehicle group” value [1, 4] was 1.14 and the “Ncam1 mean expression value relative to vehicle group” value [1, 4] was 0.14. For the same molecule, the “Pml mean expression value relative to vehicle group” value [1, 4] was 0.19, the “Ptpn6 mean expression value relative to vehicle group” value [1, 4] was 0.25 and the “Socs3 mean expression value relative to vehicle group” value [1, 4] was −0.24. The “Tyk2 mean expression value relative to vehicle group” value [1, 4] was −0.16, the “Vcam1 mean expression value relative to vehicle group” value [1, 4] was 0.52 and the “B2m mean expression value relative to vehicle group” value [1, 5] was 0.32. The “Btk mean expression value relative to vehicle group” value [1, 5] was 0.42, the “Cd14 mean expression value relative to vehicle group” value [1, 5] was 0.26 and the “Cd36 mean expression value relative to vehicle group” value [1, 5] was 4.37. The “Cd74 mean expression value relative to vehicle group” value [1, 5] was 1.18, the “Ctsc mean expression value relative to vehicle group” value [1, 5] was 0.36 and the “Ctss mean expression value relative to vehicle group” value [1, 5] was 2.29. For the same molecule, the “Cybb mean expression value relative to vehicle group” value [1, 5] was 1.66, the “Fcgr1 mean expression value relative to vehicle group” value [1, 5] was 1.56 and the “H2-Aa mean expression value relative to vehicle group” value [1, 5] was 1.59. The “H2-Ab1 mean expression value relative to vehicle group” value [1, 5] was 1.12, the “H2-DMa mean expression value relative to vehicle group” value [1, 5] was 1.18 and the “H2-DMb2 mean expression value relative to vehicle group” value [1, 5] was 0.84. For the same molecule, the “H2-Ea-ps mean expression value relative to vehicle group” value [1, 5] was 0, the “H2-Eb1 mean expression value relative to vehicle group” value [1, 5] was 1.66 and the “H2-K1 mean expression value relative to vehicle group” value [1, 5] was 0.26. For the same molecule, the “H2-Ob mean expression value relative to vehicle group” value [1, 5] was 2.19, the “H2-Q10 mean expression value relative to vehicle group” value [1, 5] was 0.32 and the “Ly96 mean expression value relative to vehicle group” value [1, 5] was 0.58. The “Ncf4 mean expression value relative to vehicle group” value [1, 5] was 0.62, the “Psmb9 mean expression value relative to vehicle group” value [1, 5] was 0.6 and the “Tap1 mean expression value relative to vehicle group” value [1, 5] was 0.51. The “Tlr1 mean expression value relative to vehicle group” value [1, 5] was 0.51, the “Tlr2 mean expression value relative to vehicle group” value [1, 5] was 0.12 and the “Tlr4 mean expression value relative to vehicle group” value [1, 5] was 1.1. The “Esm1 expression, a target of VEGF signaling” value ([1]; tumors) was “decrease”, the “expression of genes associated with cytotoxic immune cell function, T cell activation, and antigen presentation” value ([1]; tumors) was “Increased expression” and the “tumor growth inhibition (TGI)” value ([2]; Day 11, lucitanib monotherapy 10 mg/kg p.o. daily) was 100%. The median survival time ([2]; lucitanib monotherapy 10 mg/kg p.o. daily for 28 days, vehicle 15 days) was 39 days and the “tumor growth outcome (summary in words)” value ([2]; treatment arm summaries) was “transient inhibition of tumor growth”.
